Experimental data reported in patent US5716627A, “Skin care compositions containing fatty acid amides, azoles, and retinol or retinyl ester” (Elizabeth Arden Co., Division of Conopco, Inc., priority 1996, dated 1998).

What was measured:
[1] = test system: Human keratinocytes; assay: 3H-thymidine incorporation by cultured keratinocytes (keratinocyte proliferation); format: cell-based
Method: Human keratinocytes, isolated from neonatal foreskin by trypsin treatment were grown in Dulbecco Modification Eagle (DME) Hams F12 (1:1) medium/10% fetal calf serum in the presence of irradiated 3T3 mouse fibroblasts for establishing dividing keratinocyte colonies. Cells were grown under the above condition until their second passage and kept frozen for future use. […] On day 7, when the cells were 80-90% confluent, they were trypsinized and plated in the serum-free medium for the various experiments.
The incorporation of ^3 H-thymidine by cultured keratinocytes was used as an assay of keratinocyte proliferation. Thymidine is one of four deoxynucleosides which are the monomeric units of DNA, the universal library of genetic information in the animal kingdom. Prior to cell division of a somatic cell such as a keratinocyte, the complete genome of the cell undergoing cell division is replicated. This involves large scale DNA synthesis by the cell and enables both daughter cells to receive identical copies of the genetic material. When ^3 H-thymidine is included in the culture media of keratinocytes which are synthesizing DNA in preparation for cell division then the labelled nucleoside is incorporated into the newly synthesized DNA. The extent of incorporation of ^3 H-thymidine into a population of cells is proportional to the rate of DNA synthesis by this population of cells and therefore an indication of their cellular proliferation.
Keratinocytes (that were cultured as described above) were plated in 24 well plates at a density of 40,000 cells per well in 1 ml media. After incubation for four days or until the cells were 60-70% confluent, the media was changed. Test compounds were added (in triplicate) to the wells 24 hours after the media change, and four hours later 1 μCi ^3 H-Thymidine in 50 μl media was added per well. Cells were incubated for a further 24 hours. Media was removed from the cells, 10% ice cold trichloroacetic acid (TCA) added and plates were incubated on ice for 30 minutes. Cells were washed five times with 5% TCA and allowed to dissolve in 500 μl 0.1M NaOH for at least one hour (usually overnight). The preparations were neutralized with 0.1M HCl; 50 μl of the cell preparation was used to determine total protein content. Disintegrations per minute (DPM) from ^3 H labelling of DNA was determined by liquid scintillation counting of 900 μl of the cell preparation. Thymidine incorporation results were expressed as DPM/μg protein.

[2] = test system: TGase I; assay: Transglutaminase (TGase I) ELISA in cultured keratinocytes, normalized to DNA content (keratinocyte differentiation); format: cell-based, human; conditions: for Mean TGase/DNA X 10^-4 ± S.D.: n = 3
Method: Human keratinocytes, isolated from neonatal foreskin by trypsin treatment were grown in Dulbecco Modification Eagle (DME) Hams F12 (1:1) medium/10% fetal calf serum in the presence of irradiated 3T3 mouse fibroblasts for establishing dividing keratinocyte colonies. Cells were grown under the above condition until their second passage and kept frozen for future use. Frozen second passage keratinocytes were thawed and plated into the above medium and grown for five days before they were switched to a serum-free MCDB 153-based medium keratinocyte growth medium (KGM) from Clonetics Corporation, San Diego, Calif., containing 0.15 mM Ca, or keratinocyte serum-free media (KSFM) from GIBCO containing 0.09 mM Ca). On day 7, when the cells were 80-90% confluent, they were trypsinized and plated in the serum-free medium for the various experiments.
During the process of terminal differentiation in the epidermis, a 15 nm thick layer of protein, known as the cornified envelope (CE) is formed on the inner surface of the cell periphery. The CE is composed of numerous distinct proteins which have been cross-linked together by the formation of N^ε -(γ-glutamyl) lysine isodipeptide bonds catalyzed by the action of at least two different transglutaminases (TGases) expressed in the epidermis. TGase I is expressed in abundance in the differentiated layers of the epidermis, especially the granular layer, but is absent in the undifferentiated basal epidermis. Thus TGase I is a useful marker of epidermal keratinocyte differentiation with high TGase I levels indicating a more differentiated state. An ELISA based TGase I assay, using a TGase I antibody, was used to assess the state of differentiation of the cultured keratinocytes in the examples that follow.
Keratinocytes (cultured as described above) were plated in 96 well plates at a density of 3,000 cells per well in 200 μl media. After incubation for four days the media was changed to media containing test compounds (six replicates per test). The cells were cultured for a further 72 hours after which time the media was aspirated and the plates stored at -70° C. Plates were removed from the freezer, and the cells washed with PBS. 100 μl sterile water was added and the cells were freeze fractured by freezing at -70° C. then thawing. The cells were incubated for one hour at room temperature (R/T) with PBS/3% BSA (wash buffer, bovine serum albumin), then rinsed with a fresh aliquot of wash buffer. Cells were incubated with 50 μl of primary antibodies monoclonal anti-human transglutaminase (IgG) obtained from Amersham (mouse) diluted 1:300 in wash buffer for one hour, 37° C. then rinsed two times with wash buffer. Cells were then incubated with 50 μl of secondary antibody (Feb fragment, peroxidase conjugated anti-mouse IgG obtained from Amersham) diluted 1:200 in wash buffer for one hour at 37° C., then rinsed two times with wash buffer. Cells were incubated with substrate solution (4 mg o-phenylene diamine and 3.3 μl 30% H2 O2 in 10 ml 0.1M citrate buffer pH 5.0) for five minutes, R/T, in darkness (under aluminum foil). The reaction was stopped by the addition of 50 μl 4N H2 SO4. The absorbance of samples was read at 492 nm in the plate reader. Out of the six replicates, four were treated with both antibodies, two were treated only with the secondary antibody (i.e., to determine background binding of enzyme conjugated Ab). TGase levels were determined by subtracting background from the readings from each treatment and determining mean ±s.d. for the replicates exposed to both Ab.
The level of TGase-1 detected after treatment of the cells could be influenced by cell number, i.e., the greater the number of cells the greater the level of TGase-1 detected. The level of TGase-1 was normalized to DNA content of the cells in the same well thus eliminating variation due to differences in cell number. […]

[3] = Examples 1-4, overall conclusion

With CC1=C(/C=C/C(C)=C/C=C/C(C)=C/CO)C(C)(C)CCC1 [ROH, retinol] the “effect on keratinocyte proliferation (in words)” value [1, 3] was “completely ineffective at increasing keratinocyte proliferation”, the “Thymidine incorporation (% control)” value ([1]; Table 1A, 2.5 × 10^-7 M, 24 hours, 0.25 µM) was 106% and the “mean Thymidine incorp./μg protein ± s.d” value ([1]; Table 1A, 2.5 × 10^-7 M, 24 hours, n = 3) was 2218 ± 73 DPM/μg protein. The “Thymidine incorporation (% control)” value ([1]; Table 1A, 2.5 × 10^-8 M, 24 hours, 0.025 µM) was 97%, the “mean Thymidine incorp./μg protein ± s.d” value ([1]; Table 1A, 2.5 × 10^-8 M, 24 hours, n = 3) was 2034 ± 46 DPM/μg protein and the “Thymidine incorporation (% control)” value ([1]; Table 1A, 2.5 × 10^-9 M, 24 hours, 0.0025 µM) was 94%. The “mean Thymidine incorp./μg protein ± s.d” value ([1]; Table 1A, 2.5 × 10^-9 M, 24 hours, n = 3) was 1977 ± 19 DPM/μg protein, the “Thymidine incorporation (% control)” value ([1]; Table 2A, 2.5 × 10^-9 M RA or ROH, with 10^-8 M LADEA and/or 10^-9 M Bifonazole where named, 24 hours) was 111% and the “mean Thymidine incorp. μg protein ± s.d” value ([1]; Table 2A, 2.5 × 10^-9 M RA or ROH, with 10^-8 M LADEA and/or 10^-9 M Bifonazole where named, 24 hours, n = 3) was 4856 ± 217 DPM/μg protein. For the same compound, the “Thymidine incorporation (% control)” value ([1]; Table 3A, 2.5 × 10^8 M [sic] ROH, with 10^8 M LADEA and/or 10^9 M Climbazole where named, 1440 min) was 102%, the “mean Thymidine incorp/μg protein ± s.d” value ([1]; Table 3A, 2.5 × 10^8 M [sic] ROH, with 10^8 M LADEA and/or 10^9 M Climbazole where named, n = 3) was 3788 ± 57 DPM/μg protein and the “Thymidine incorporation (% control)” value ([1]; Table 4, 2.5 × 10^9 M [sic] RA or ROH, with 10^8 M LAMEA and/or 10^8 M Clotrimazole where named, 24 hours) was 113%. The “mean Thymidine incorp/μg protein ± s.d, normalized to control” value ([1]; Table 4, 2.5 × 10^9 M [sic] RA or ROH, with 10^8 M LAMEA and/or 10^8 M Clotrimazole where named, 24 hours, n = 3) was 1.13 ± 0.09, the “effect on transglutaminase level / keratinocyte differentiation (in words)” value ([2]; Example 1, 2.5×10^-7 M, 2.5×10^-8 M and 2.5×10^-9 M) was “dose dependent” and the “effect on keratinocyte TG1 level / differentiation (in words)” value ([2]; Example 2, 2.5×10^-8 M RA or retinol, 10^-8 M LAMEA, 10^-8 M bifonazole, 72 hour) was “Neither 2.5×10^-8 M retinol nor 10^-8 M LAMEA+10^-8 M bifonazole had an inhibitory effect on the keratinocyte TG1 level”. For the same compound, the “effect on keratinocyte TG1 level / differentiation (in words)” value ([2]; Example 3, 2.5×10^-7 M RA, 2.5×10^-9 M retinol with 10^-8 M LADEA and/or climbazole, 72 hour) was “no inhibitory effect on the keratinocyte TG1 level”, the “effect on keratinocyte differentiation (in words)” value [2, 3] was “significantly less effective than retinoic acid at inhibiting keratinocyte differentiation” and the “TGase/DNA (% Control)” value ([2]; Table 1B, 2.5 × 10^-7 M, 72 hours, 0.25 µM) was 47%. For the same compound, the “Mean TGase/DNA X 10^-4 ± S.D.” value ([2]; Table 1B, 2.5 × 10^-7 M, 72 hours) was 1.14 ± 0.22 X 10^-4, the “TGase/DNA (% Control)” value ([2]; Table 1B, 2.5 × 10^-8 M, 72 hours, 0.025 µM) was 77% and the “Mean TGase/DNA X 10^-4 ± S.D.” value ([2]; Table 1B, 2.5 × 10^-8 M, 72 hours) was 1.89 ± 0.30 X 10^-4. For the same compound, the “TGase/DNA (% Control)” value ([2]; Table 1B, 2.5 × 10^-9 M, 72 hours, 0.0025 µM) was greater than 100%, the “Mean TGase/DNA X 10^-4 ± S.D.” value ([2]; Table 1B, 2.5 × 10^-9 M, 72 hours) was 2.70 ± 0.59 X 10^-4 and the “TGase/DNA (% Control)” value ([2]; Table 2B and Example 2B text, 2.5×10^-8 M RA or retinol, 10^-8 M LAMEA, 10^-8 M bifonazole where named, 72 hour) was 84%. The “mean TGase/DNA × 10^-4 ± s.d” value ([2]; Table 2B, 2.5 × 10^8 M [sic] RA or ROH, 10^8 M LA-MEA, 10^8 M Bifonazole where named, 72 hour, n = 6) was 0.111 ± 0.023 × 10^-4, the “TGase/DNA (% Control)” value ([2]; Table 3B and Example 3B, 2.5×10^-9 M RA or ROH, with 10^-8 M LADEA and/or 10^-8 M climbazole where named, 72 hour) was 129% and the “mean TGase/DNA × 10^4 ± s.d” value ([2]; Table 3B, 2.5 × 10^9 M [sic] RA or ROH, with 10^8 M LA-DEA and/or 10^8 M Climbazole where named, 72 hour, n = 6) was 1.96 ± 0.33 × 10^4.
